# In BindingDB's records for doi:10.1016/0960-894X(95)00403-G (1995):
# Assay: Compound was tested for inhibiting [3H]N-Methyl-scopolamine Binding to Muscarinic acetylcholine receptor M4 in NG 108-15 Cell
compound,measurement,value
C[N+]1(C)CCC2(CC1)OC(=O)C(c1ccccc1)(c1ccccc1)O2,Ki,11 nM
